Laboratory results reported in ChEMBL document CHEMBL1130581, “Inhibition of nematode induced root damage by derivatives of methylenecyclopropane acetic acid” (1997).
In brackets after ≈: the same amount, converted by molar mass.

Experiments:
Type in all cases: functional
Meloidogyne incognita [1] = assay: Average percent inhibition of nematode pest Meloidogyne incognita induced root galling of treated soil medium at 0.5 ppm
Meloidogyne incognita [2] = assay: Average percent inhibition of nematode pest Meloidogyne incognita induced root galling of treated sand medium at 0.5 ppm
Meloidogyne incognita [3] = assay: Average percent inhibition of nematode pest Meloidogyne incognita induced root galling of treated sand medium at 125 ppm
Meloidogyne incognita [4] = assay: Average percent inhibition of nematode pest Meloidogyne incognita induced root galling of treated soil medium at 7.8 ppm
Meloidogyne incognita [5] = assay: Average percent inhibition of nematode pest Meloidogyne incognita induced root galling of treated soil medium at 125 ppm
Meloidogyne incognita [6] = assay: Average percent inhibition of nematode pest Meloidogyne incognita induced root galling of treated sand medium at 7.8 ppm
Meloidogyne incognita [7] = assay: Lethal concentration required for inhibition of nematode induced root galling of treated sand medium to that of untreated soil medium

`C=C1CC1CCSC1=NCCS1` (stereo not drawn) showed an inhibition at 0.5 ppm (Meloidogyne incognita [1]) of 0%, an inhibition at 0.5 ppm (Meloidogyne incognita [2]) of 50% and an inhibition at 125 ppm (Meloidogyne incognita [3]) of 100%. For the same compound, the inhibition at 7.8 ppm (Meloidogyne incognita [4]) was 25%, the inhibition at 125 ppm (Meloidogyne incognita [5]) was 100% and the inhibition at 7.8 ppm (Meloidogyne incognita [6]) was 100%.
`C=C1CC1CC(=O)O` (stereo not drawn) was tested, and the inhibition at 0.5 ppm (Meloidogyne incognita [1]) was 0%, the inhibition at 0.5 ppm (Meloidogyne incognita [2]) was 90% and the inhibition at 125 ppm (Meloidogyne incognita [3]) was 100%. The inhibition at 7.8 ppm (Meloidogyne incognita [4]) was 15%, the inhibition at 125 ppm (Meloidogyne incognita [5]) was 80% and the inhibition at 7.8 ppm (Meloidogyne incognita [6]) was 100%.
Compound `CC1CC1CC(=O)O` (stereo not drawn) has an inhibition at 0.5 ppm (Meloidogyne incognita [1]) of 0%, an inhibition at 0.5 ppm (Meloidogyne incognita [2]) of 0% and an inhibition at 125 ppm (Meloidogyne incognita [3]) of 100%. It also gave an inhibition at 7.8 ppm (Meloidogyne incognita [4]) of 0%, an inhibition at 125 ppm (Meloidogyne incognita [5]) of 0% and an inhibition at 7.8 ppm (Meloidogyne incognita [6]) of 100%.
Compound `C=C1CC1CC(=O)OCc1cccc(Oc2ccccc2)c1` (stereo not drawn) has an inhibition at 0.5 ppm (Meloidogyne incognita [1]) of 0%, an inhibition at 0.5 ppm (Meloidogyne incognita [2]) of 50% and an inhibition at 125 ppm (Meloidogyne incognita [3]) of 100%. The inhibition at 7.8 ppm (Meloidogyne incognita [4]) was 0%, the inhibition at 125 ppm (Meloidogyne incognita [5]) was 50% and the inhibition at 7.8 ppm (Meloidogyne incognita [6]) was 100%.
In the case of `C=C1CC1CCN` (stereo not drawn), the inhibition at 0.5 ppm (Meloidogyne incognita [1]) is reported as 0%, the inhibition at 0.5 ppm (Meloidogyne incognita [2]) is reported as 25% and the inhibition at 125 ppm (Meloidogyne incognita [3]) is reported as 100%. It also gave an inhibition at 7.8 ppm (Meloidogyne incognita [4]) of 0%, an inhibition at 125 ppm (Meloidogyne incognita [5]) of 75% and an inhibition at 7.8 ppm (Meloidogyne incognita [6]) of 100%.
`C=C1C(CC(=O)OCc2cccc(Oc3ccccc3)c2)C1(F)F` (stereo not drawn) was tested, and the inhibition at 0.5 ppm (Meloidogyne incognita [1]) was 0%, the inhibition at 7.8 ppm (Meloidogyne incognita [4]) was 0% and the inhibition at 125 ppm (Meloidogyne incognita [5]) was 25%.
`C=C1CC1CCOC(=O)c1ccc(OCC)cc1` (stereo not drawn) showed an inhibition at 0.5 ppm (Meloidogyne incognita [1]) of 0%, an inhibition at 0.5 ppm (Meloidogyne incognita [2]) of 100% and an inhibition at 125 ppm (Meloidogyne incognita [3]) of 100%. The inhibition at 7.8 ppm (Meloidogyne incognita [4]) was 0%, the inhibition at 125 ppm (Meloidogyne incognita [5]) was 100% and the inhibition at 7.8 ppm (Meloidogyne incognita [6]) was 100%.
For `C=C1C(CC(=O)OCCCCCCCCCCCCCCCC)C1(F)F` (stereo not drawn), the inhibition at 0.5 ppm (Meloidogyne incognita [1]) was 0%, the inhibition at 7.8 ppm (Meloidogyne incognita [4]) was 0% and the inhibition at 125 ppm (Meloidogyne incognita [5]) was 0%.
`C=C1CC1CC(N)=O` (stereo not drawn) gave an inhibition at 0.5 ppm (Meloidogyne incognita [1]) of 0%, an inhibition at 0.5 ppm (Meloidogyne incognita [2]) of 0% and an inhibition at 125 ppm (Meloidogyne incognita [3]) of 100%. It also gave an inhibition at 7.8 ppm (Meloidogyne incognita [4]) of 0%, an inhibition at 125 ppm (Meloidogyne incognita [5]) of 100% and an inhibition at 7.8 ppm (Meloidogyne incognita [6]) of 100%.
`C=C1CC1CC(=O)OCCCCCCCCCCCCCCCC` (stereo not drawn) showed an inhibition at 0.5 ppm (Meloidogyne incognita [1]) of 0%, an inhibition at 0.5 ppm (Meloidogyne incognita [2]) of 100% and an inhibition at 125 ppm (Meloidogyne incognita [3]) of 100%. The inhibition at 7.8 ppm (Meloidogyne incognita [4]) was 50%, the inhibition at 125 ppm (Meloidogyne incognita [5]) was 100% and the inhibition at 7.8 ppm (Meloidogyne incognita [6]) was 100%.
With `C=C1C(CC(=O)O)C1(F)F` (stereo not drawn) the inhibition at 0.5 ppm (Meloidogyne incognita [1]) was 0%, the inhibition at 7.8 ppm (Meloidogyne incognita [4]) was 0% and the inhibition at 125 ppm (Meloidogyne incognita [5]) was 100%.
`CNC(=O)O/N=C/C(C)(C)SC` [ALDICARB] showed an LC50 (Meloidogyne incognita [7]) of 3.8 µg/mL (≈ 20 µM).
